Laboratory results reported in publication PMC11729550, “Discovery of indole analogue Tc3 as a potent pyroptosis inducer and identification of its combination strategy against hepatic carcinoma” (Theranostics, 2025).

How the values were obtained:
[1] = test system: HepG2, SK-Hep1, and PLC-PRF5 cells; assay: Cell proliferation assays (growth curve, colony formation); format: cell-based, human; conditions: 0-4 μM
Experimental: For colony formation, hepatic carcinoma cells were seeded in 6-well plates and treated with Tc3 for almost 10 days, and the cell colonies were photographed for statistical analysis.

[2] = test system: AML-12 cells; assay: Dose-response growth inhibition of liver parenchymal cells; format: cell-based; conditions: AML12; mouse liver parenchymal cells
Text: (§1) The cells were counted with hemocytometer.
(E) Dose-response curves for Tc3 inhibiting the growth of AML-12 cells.

[3] = test system: Hepa1-6 CDXs; assay: Anti-PD-1 antibody synergistic effect in vivo; conditions: C57 BL/6N mice
Text: (§2) Balb/c nude mice (female, 6-week-old) were subcutaneously injected with 2 × 10^6 HepG2 cells on the left and right flanks to construct cell-derived xenografts (CDXs). The patient-derived xenografts (PDXs) samples were gifts from Dr Changliang Shan of Nankai University. C57 BL/6N mice (female, 5-week-old) were subcutaneously injected with 2 × 10^6 Hepa1-6 cells mixed with matrigel (ABW, 0827265) on the left and right flanks. The mice were inoculated with hepatic carcinoma CDXs or PDXs for at least four days, and treated (i.p.) by vehicle and Tc3. […] Tumor volume = 4π/3 × (Length/2) × (Width/2)^2. All animal experiments were carried out in accordance with the recommendations of Requirements of the Ethical Review System of Biomedical Research Involving Human by National Health and Family Planning Commission of China and Nankai University Ethics Committee with written informed consent complying with the Declaration of Helsinki (IAEC ID: 2023-STDWLL-000249).
The CDI value of tumor weight was calculated using formula mentioned before.

[4] = test system: hepatocarcinoma PDXs; assay: Hepatocarcinoma PDXs treatment; format: in vivo, Balb/c nude mice; conditions: 20 mg/kg and 40 mg/kg i.p. ten times, day 20
Text: as §2

[5] = test system: HepG2 cells; assay: Flow cytometry of propidium iodide and annexin V-FITC staining; format: cell-based, human; conditions: HepG2, 4 μM
Text: (§3) Figure 2 Cytotoxic effect of Tc3 on human hepatic carcinoma cells in vitro. […] (B-C) Cell viability rates of HepG2 (B) and SK-Hep1 (C) cells treated with Tb7, Tc1, Tc3, Tc4 and other clinical chemotherapy drugs. (D-F) Flow cytometry of propidium iodide and annexin V-fluorescein isothiocyanate (FITC)-stained HepG2 cells (D). Statistical analysis of the early apoptotic cells (E) and late apoptotic cells (F). (G-I) Flow cytometry of propidium iodide and annexin V-fluorescein isothiocyanate (FITC)-stained AML-12 cells (G). Statistical analysis of the early apoptotic cells (H) and late apoptotic cells (I). Data are presented as mean ± SD of three independent biological experiments. *p < 0.05, **p < 0.01, ***p < 0.001 and ****p < 0.0001, ns, no significant.

[6] = test system: hepatic carcinoma cells; assay: Cell migration assay (wound scratch, transwell); format: cell-based, human; conditions: HepG2 and SK-Hep1, 0-4 μM
Experimental: For transwell assay, the hepatic carcinoma cells were seeded in wells and put wells into 24-well plates pre-loaded DMEM medium supplemented with 20% FBS. The wells were added only DMEM medium with Tc3. The cells migrated through the membrane of wells in two days. Next, the wells were fixed by paraformaldehyde, stained by crystal violet and photographed for statistical analysis. For cell scratch assay, the hepatic carcinoma cells were seeded in 6-well plates and treated with Tc3. The scratch lines were obtained before the cell fusion reached almost 100%, and the cells were photographed at time gradient points for statistical analysis.

[7] = test system: SK-Hep1 cells; assay: Anti-tumor activity assay (IC50 value), cells counted after three days; conditions: Homo sapiens, SK-HEP1, 72 h, read-out: IC50 SK-Hep1
Experimental: For half maximal inhibitory concentrations (IC50) analysis, the hepatic carcinoma cells (HepG2, SK-Hep1 and PLC-PRF5) were seeded in 24-well plates respectively, then treated with drugs at concentration gradient for three days. The cells were counted with hemocytometer. […] A is the cell quantity of the control group and B is the cell quantity of the drug treated group. The cell inhibition rate was transformed using its logarithm. And the drug IC50 value were calculated by Graphpad Prsim 9 software with curve fitting of the drug concentration and log (cell inhibition rate).

[8] = in vitro; conditions: microsomes
Experimental: The reaction media contained liver microsomes (0.5 mg/mL), 1.0 mM β-nicotinamide adenine dinucleotide phosphate (β-NADPH), 3 mM MgCl2 phosphate buffer. Microsomal suspensions were pre-incubated with Tc3 for 3 min at 37℃. The reaction was initiated with the addition of β-NADPH and samples were collected at 0, 5, 15, 30 and 60 min. The negative control was excluded of β-NADPH. Midazolam was incubated similarly as a positive control substrate. At each time point, an aliquot was mixed acetonitrile. Samples were centrifuged and then supernatant was mixed with ultrapure water for LC-MS/MS analysis.

[9] = test system: HepG2 CDXs; assay: HepG2 CDXs treatment; format: in vivo, Balb/c nude mice; conditions: 20 mg/kg and 40 mg/kg i.p. five times
Text: as §2

[10] = test system: AML-12 cells; assay: Flow cytometry of propidium iodide and annexin V-FITC staining; format: cell-based, mouse
Text: as §3

[11] = test system: Balb/c mice; assay: Subchronic toxicity test; format: in vivo
Experimental: And the organ tissues of mice were collected for further H&E staining.
The formalin‐fixed and paraffin‐embedded tissues were cut into 5 μm sections. The sections were firstly soaked in xylene for removing paraffin and soaked in alcohol at decreasing concentration for tapping water. In the H&E staining assay, the sections were stained in Harris’s hematoxylin reagent and eosin reagent in turn. In the IHC staining, the sections were conducted antigen retrieval process and blocked with normal goat serum. Next, sections were incubated with the primary antibodies overnight and incubated with HRP-conjugated secondary antibodies. The tissue images were captured by a microscope.

[12] = test system: pLKO.1 HepG2 cells; assay: Dose-response growth inhibition, control knockdown cells; format: cell-based; conditions: Homo sapiens
Experimental: as §1
Briefly, the pLKO.1 or shRNA plasmids with psPAX2 and PMD2.G were transfected into HEK-293T cells via DNA transfection reagent (SignaGen®Laboratories, SL100688). And the cell supernatant contained Lenti-virus was collected after 24 hours. The Lenti-virus of shRNAs were used to infect the hepatic carcinoma cells and the stable-transfection cell lines were screened by puromycin (1 μg/mL) (Solarbio, P8230).

[13] = test system: ROS; assay: Reactive Oxygen Species detection (DCFH-DA); format: cell-based, human; conditions: HepG2 cells, 24 h
Experimental: The hepatic carcinoma cells were seeded in 6-well plates and treated with Tc3 for 24 h. The cells were then stained by DCFH-DA (10 μM) for 20 min, washed with PBS buffer for two times, and the fluorescence intensity was captured by a confocal microscope (Leica, TCS SP8).

CC(C)[C@H](N)C(=O)NCCCn1cc(/C=C2\S/C(=N\c3ccc(N4CCOCC4)cc3)N(Cc3ccc(F)cc3)C2=O)c2ccccc21 [Tc3]
tumor proliferation (growth curve, colony formation) [1]: significantly inhibited tumor proliferation | IC50 [2]: 6140 nM | damage to liver, spleen, kidney and small intestine (pathology) ([3]; 10 mg/kg): did not cause significant damage | tumor growth of Hepa1-6 CDXs compared to control groups ([3]; i.p., Tc3 10 mg/kg, anti-PD-1 10 mg/kg): significantly inhibited tumor growth | tumor size and weight of PDXs [4]: significantly reduced the tumor size and weight | cell death by annexin V / propidium iodide flow cytometry [5]: severe cell death | cell migration rates (wound scratch, transwell) [6]: reduced cell migration rates | IC50 [7]: 1640 nM | half-life at 1 μM ([8]; human): 0.825 h | microsomal CLint at 1 μM ([8]; human): 28 µL/min/mg | half-life at 1 μM ([8]; mouse): 1.93 h | microsomal CLint at 1 μM ([8]; mouse): 12 µL/min/mg | growth rate and weight of HepG2 CDX tumors [9]: significantly smaller | cell death by annexin V / propidium iodide flow cytometry [10]: not observed | glomerular structure of the kidney (HE staining) ([11]; 60 mg/kg): slightly damaged | jejunum crypts and villi (HE staining) ([11]; 60 mg/kg): severely disrupted | weight and health state ([11]; 60 mg/kg i.p.): lower weight and worse health state | lung findings (HE staining) ([11]; i.p. every two days, day 14): alveolar wall thickening and increased numbers of lymphocytes | toxicity to the heart, liver, spleen and stomach (HE staining) ([11]; i.p. every two days, day 14): no significant toxicity | IC50 [12]: 2220 nM | intracellular ROS (DCFH-DA probes) [13]: observably up-regulated
